Data published in article PMC5100981 (Antiviral research, 2016).
Like-named read-outs stand apart in the source and are kept apart here.

Columns and labels:
[1] = tested on: Enterovirus D68 (Fermon strain); test: CPE inhibition assay; assay type: cell-based; conditions: for EC50: Enterovirus D, RD, read-out: EC50, 50% effective (virus-inhibitory) concentration
[2] = tested on: Enterovirus 71 (Tainan/4643/98 strain); test: CPE inhibition assay; assay type: cell-based
[3] = tested on: EV-D68 (US/KY/14-18953 strain); test: Virus yield reduction; assay type: cell-based, Enterovirus D68
[4] = tested on: EV-D68/US/KY/14-18953; test: CPE inhibition; assay type: cell-based, Enterovirus D68; conditions: for SI, selectivity index (CC50 / EC50): A549 cells; for EC50: Enterovirus D, EVD68, A549, read-out: EC50, 50% effective concentration
[5] = tested on: EV-D68/US/KY/14-18953; test: CPE inhibition; assay type: cell-based, Enterovirus D68; conditions: for EC50: Enterovirus D, EVD68, HeLa Ohio1, read-out: EC50, 50% effective concentration; for SI, selectivity index (CC50 / EC50): HeLa-Ohio-1 cells
[6] = tested on: RD human rhabdomyosarcoma cells
[7] = tested on: Rhinovirus 87 (F02-3607 Corn strain); test: CPE inhibition assay; assay type: cell-based
[8] = tested on: EV-71; conditions: ref Zhang et al., 2013; cited from earlier work
[9] = in vitro; conditions: human
[10] = in vitro; conditions: human, uninfected A549 lung carcinoma cells, stationary monolayers
[11] = Enterovirus D68/Fermon, RD cells
[12] = EV-D68 US/KY/14-18953, RD cells

| Compound | SI, selectivity index (CC50 / EC50) [1, 11] | EC50 [1] [µM] | SI, selectivity index (CC50 / EC50) ([2]; Enterovirus 71, RD cells) | Overall activity against EV-D68 virus (in words) ([3]; CPE inhibited at much lower concentration than virus yield) | SI, selectivity index (CC50 [from Table 1] / EC90) [3, 12] | SI, selectivity index (CC50 / EC50) [4] | EC50 [4] [µM] | EC50 [5] [µM] | SI, selectivity index (CC50 / EC50) [5] | CC50 [6] [µM] | SI, selectivity index (CC50 / EC50) [1] | SI, selectivity index (CC50 / EC50) [7] | SI, selectivity index (CC50 / EC50) [2] | SI, selectivity index (CC50 [from Table 1] / EC90) [3] | Treatment of EV-71 infection in suckling mice (mortality and clinical scores) [8] | CC50 [9] [µM] | SI, selectivity index (CC50 / EC50) ([7]; Rhinovirus 87, RD cells) | CC50 ([9]; uninfected RD rhabdomyosarcoma cells, stationary monolayers) [µM] | CC50 [10] [µM] |
| --- | --- | --- | --- | --- | --- | --- | --- | --- | --- | --- | --- | --- | --- | --- | --- | --- | --- | --- | --- |
| CCOC(=O)c1ccc(OCCC2CCN(c3ccc(C)nn3)CC2)cc1 [Pirodavir, pirodavir] | 3 | 7 ± 3 | 24 | poorly effective | <1 | 13 | 11 ± 7.2 | 6.1 ± 2.8 | 5.3 | 32 ± 18 |  |  |  |  |  |  |  |  |  |
| CCOC(=O)/C=C/[C@H](C[C@@H]1CCNC1=O)NC(=O)[C@@H](CC(=O)[C@@H](NC(=O)c1cc(C)on1)C(C)C)Cc1ccc(F)cc1 [Rupintrivir, rupintrivir] |  | 0.0022 |  |  |  |  |  |  |  |  | 60910 | 25280 | 7450 | 33,500 | effective | 134 ± 21 |  |  |  |
| Nc1cc2nc[nH]c2c(=O)[nH]1 [3-Deazaguanine, 3-deazaguanine] |  | 6.7 ± 1.6 |  |  |  |  |  |  |  |  | 54 | 45 | 5 | 45 |  | 360 ± 227 |  |  |  |
| CC(C)S(=O)(=O)n1c(N)nc2ccc(/C(=N/O)c3ccccc3)cc21 [Enviroxime, enviroxime] | 352 | 0.27 ± 0.19 | 92 |  | 156 | 89 | 0.77 ± 1.1 | 1.7 ± 0.72 | 45 |  |  |  |  |  |  |  | 500 | 66 ± 28 | 68 ± 13 |
| NC(=O)c1ncn([C@@H]2O[C@H](CO)[C@@H](O)[C@H]2O)n1 [Ribavirin, ribavirin] |  | 147 ± 74 |  |  |  |  |  |  |  |  |  |  |  |  |  | 1100 ± 450 |  |  |  |
| Cc1cc(CCCOc2c(C)cc(-c3noc(C(F)(F)F)n3)cc2C)on1 [Pleconaril, pleconaril] |  | 0.13 ± 0.09 |  |  |  |  |  |  |  |  | 87 | 7 |  | 54 |  | 11.3 ± 6.3 |  |  |  |
